# Test results as given in patent US9850283B2, “Macrocyclic inhibitors of the PD-1/PD-L1 and CD80(B7-1)/PD-L1 protein/protein interactions” (BRISTOL-MYERS SQUIBB COMPANY, priority 2013, dated 2017).
# Where two headings read alike, the source gives them in different places. Starred links: 1 amine or outer side, 2 acyl side, 3 side chain; linkers in the order of their positions; H or OH if unused. Positions of bridges follow the written chain, without caps; N, C: chain ends. Non-standard residues stand in square brackets, D forms with d. Residues, ends and D or L forms follow the SMILES beside them. ξ: configuration not given here. PEG12 = NCCOCCOCCOCCOCCOCCOCCOCCOCCOCCOCCOCCOCCC(=O)O; ξPro(4R-NH2) = O=C(C1C[C@@H](N[*:3])CN1[*:1])[*:2]; Hyp = O=C(O)[C@@H]1C[C@@H](O)CN1; NMeNle = CCCC[C@H](NC)C(=O)O; αMeP = C[C@@]1(C(=O)O)CCCN1; NMeS = CN[C@@H](CO)C(=O)O; NMeA = CN[C@@H](C)C(=O)O; Orn = NCCC[C@H](N)C(=O)O; ξPip = O=C(O)C1CCCCN1; ξAze = O=C(O)C1CCN1; ξP = O=C(O)C1CCCN1; Sar = CNCC(=O)O
# Molecular target: T1, Human PD-L1/PD-1 (Homo sapiens, UniProt Q9NZQ7)
# T1 construct: made in house; host or cells: HEK293T
# T1 sequence (Q9NZQ7 with tags, fused parts or gaps): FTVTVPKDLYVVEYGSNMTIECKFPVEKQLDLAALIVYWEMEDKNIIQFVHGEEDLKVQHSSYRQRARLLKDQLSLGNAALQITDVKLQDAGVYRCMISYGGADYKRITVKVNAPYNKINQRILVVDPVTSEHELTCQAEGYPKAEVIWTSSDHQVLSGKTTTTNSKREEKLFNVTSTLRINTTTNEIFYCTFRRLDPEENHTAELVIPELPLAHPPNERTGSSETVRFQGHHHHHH
# Experiment: HTRF PD-1-Ig/PD-L1-His binding assay (human PD-L1)
# From the text: The ability of the macrocyclic peptides of the present disclosure to bind to PD-L1 was investigated using a PD-1/PD-L1 Homogenous Time-Resolved Fluorescence (HTRF) binding assay.
# Homogenous Time-Resolved Fluorescence (HTRF) Assays of Binding of Soluble PD-1 to Soluble PD-L1. Soluble PD-1 and soluble PD-L1 refers to proteins with carboxyl-end truncations that remove the transmembrane-spanning regions and are fused to heterologous sequences, specifically the Fc portion of the human immunoglobuling G sequence (Ig) or the hexahistidine epitope tag (His). All binding studies were performed in an HTRF assay buffer consisting of dPBS supplemented with 0.1% (w/v) bovine serum albumin and 0.05% (v/v) Tween-20. […] PD-L1 fusion proteins from either human, cynomologous macaques, or mouse were used. HTRF detection was achieved using europium crypate-labeled anti-Ig monoclonal antibody (1 nM final) and allophycocyanin (APC) labeled anti-His monoclonal antibody (20 nM final). Antibodies were diluted in HTRF detection buffer and 5 μl was dispensed on top of binding reaction.
# [1] = Table 9, Compound No. 71 variant macrocyclic peptides, read-out: HTRF Human PD-L1/PD-1 Binding Assay IC50
# [2] = Table 8, Compound No. 1 variant macrocyclic peptides, read-out: HTRF Human PD-L1/PD-1 Binding Assay IC50
IC50 [2] [nM],other results,Compound
–,IC50 [1]: 35 nM,"CCCC[C@H]1C(=O)N(C)CC(=O)N[C@@H](CC(=O)O)C(=O)N[C@@H](C(C)C)C(=O)N(C)[C@@H](Cc2ccccc2)C(=O)N[C@@H](C)C(=O)N(C)CC(=O)N[C@@H](Cc2c[nH]c3ccccc23)C(=O)N[C@@H](Cc2ccc(O)cc2)C(=O)N[C@@H](CC(C)C)C(=O)N[C@H](C(=O)NCC(N)=O)CSCC(=O)N[C@@H](Cc2ccccc2)C(=O)N(C)[C@@H](Cc2ccccc2)C(=O)N1C [Compound No. 83] (HELM PEPTIDE1{[O=C(C[*:3])[*:2]].F.[meF].[CCCC[C@@H](C(=O)[*:2])N(C)[*:1]].[Sar].D.V.[meF].A.[Sar].W.Y.L.C.G.[am]}$PEPTIDE1,PEPTIDE1,1:R3-14:R3$$$V2.0)"
71,–,CCCC[C@H]1C(=O)N(C)[C@@H](CCCC)C(=O)N[C@@H](CCCNC(=N)N)C(=O)N[C@H](C(=O)NCC(N)=O)CSCC(=O)N[C@@H](Cc2ccccc2)C(=O)N(C)[C@@H](C)C(=O)N[C@@H](CC(N)=O)C(=O)N2CCC2C(=O)N[C@@H](Cc2cnc[nH]2)C(=O)N[C@@H](CC(C)C)C(=O)N(C)CC(=O)N[C@@H](Cc2c[nH]c3ccccc23)C(=O)N[C@@H](CO)C(=O)N[C@@H](Cc2c[nH]c3ccccc23)C(=O)N1C (some centres unmarked) [Compound No. 50] ({CH2CO}-F[NMeA]N[ξAze]HL[Sar]WSW[NMeNle][NMeNle]RCG-NH2; thioether N-14)
–,IC50 [1]: 14 nM,"CCCC[C@H]1C(=O)NCC(=O)N[C@@H](CC(=O)O)C(=O)N[C@@H](C(C)C)C(=O)N(C)[C@@H](Cc2ccccc2)C(=O)N[C@@H](Cc2ccc(O)cc2)C(=O)N(C)CC(=O)N[C@@H](Cc2c[nH]c3ccccc23)C(=O)N[C@@H](Cc2ccc(O)cc2)C(=O)N[C@@H](CC(C)C)C(=O)N[C@H](C(=O)NCC(N)=O)CSCC(=O)N[C@@H](Cc2ccccc2)C(=O)N(C)[C@@H](Cc2ccccc2)C(=O)N1C [Compound No. 78] (HELM PEPTIDE1{[O=C(C[*:3])[*:2]].F.[meF].[CCCC[C@@H](C(=O)[*:2])N(C)[*:1]].G.D.V.[meF].Y.[Sar].W.Y.L.C.G.[am]}$PEPTIDE1,PEPTIDE1,1:R3-14:R3$$$V2.0)"
31,–,CCCC[C@H]1C(=O)N(C)[C@@H](CCCC)C(=O)N[C@@H](CCCNC(=N)N)C(=O)N[C@H](C(=O)NCC(N)=O)CSCC(=O)N[C@@H](Cc2ccccc2)C(=O)N(C)[C@@H](C)C(=O)N[C@@H](CC(N)=O)C(=O)N2CCCC2C(=O)N[C@@H](Cc2cnc[nH]2)C(=O)N[C@@H](C)C(=O)N(C)CC(=O)N[C@@H](Cc2c[nH]c3ccccc23)C(=O)N[C@@H](CO)C(=O)N[C@@H](Cc2c[nH]c3ccccc23)C(=O)N1C (some centres unmarked) [Compound No. 11] ({CH2CO}-F[NMeA]N[ξP]HA[Sar]WSW[NMeNle][NMeNle]RCG-NH2; thioether N-14)
> 10000,–,CCCC[C@H]1C(=O)N(C)[C@@H](CCCC)C(=O)N[C@@H](CCCNC(=N)N)C(=O)N[C@H](C(=O)NCC(N)=O)CSCC(=O)N[C@@H](Cc2ccccc2)C(=O)N(C)[C@@H](C)C(=O)N[C@@H](CC(N)=O)C(=O)N2CCC[C@H]2C(=O)N[C@@H](Cc2c[nH]cn2)C(=O)N[C@@H](CC(C)C)C(=O)N(C)CC(=O)N[C@@H](Cc2c[nH]c3ccccc23)C(=O)N[C@H](CCC(N)=O)C(=O)N[C@@H](Cc2c[nH]c3ccccc23)C(=O)N1C [Compound No. 59] ({CH2CO}-F[NMeA]NPHL[Sar]W[dQ]W[NMeNle][NMeNle]RCG-NH2; thioether N-14 (inferred))
13,–,CCCC[C@H]1C(=O)N(C)[C@@H](CCCC)C(=O)N[C@@H](CCCNC(=N)N)C(=O)N[C@H](C(=O)NCC(N)=O)CSCC(=O)N[C@@H](Cc2ccccc2)C(=O)N(C)[C@@H](C)C(=O)N[C@@H](CC(N)=O)C(=O)N2CCC[C@H]2C(=O)N[C@@H](Cc2cnc[nH]2)C(=O)N[C@@H](CC(C)C)C(=O)N(C)[C@@H](CO)C(=O)N[C@@H](Cc2c[nH]c3ccccc23)C(=O)N[C@@H](CO)C(=O)N[C@@H](Cc2c[nH]c3ccccc23)C(=O)N1C [Compound No. 56] ({CH2CO}-F[NMeA]NPHL[NMeS]WSW[NMeNle][NMeNle]RCG-NH2; thioether N-14)
34,–,CCCC[C@H]1C(=O)N(C)[C@@H](CCCC)C(=O)N[C@@H](CCCNC(=N)N)C(=O)N[C@H](C(=O)NCC(N)=O)CSCC(=O)N[C@@H](Cc2ccccc2)C(=O)N(C)[C@@H](C)C(=O)N[C@@H](CC(N)=O)C(=O)N2CCC[C@@]2(C)C(=O)N[C@@H](Cc2cnc[nH]2)C(=O)N[C@@H](CC(C)C)C(=O)N(C)CC(=O)N[C@@H](Cc2c[nH]c3ccccc23)C(=O)N[C@@H](CO)C(=O)N[C@@H](Cc2c[nH]c3ccccc23)C(=O)N1C [Compound No. 49] ({CH2CO}-F[NMeA]N[αMeP]HL[Sar]WSW[NMeNle][NMeNle]RCG-NH2; thioether N-14)
–,"IC50 (Table 10, Compound No. 116 variant macrocyclic peptides, read-out: HTRF Human PD-L1/PD-1 Binding Assay IC50): 21 nM",CCCC[C@H]1C(=O)N(C)[C@@H](CCCC)C(=O)N[C@@H](CC(C)C)C(=O)N[C@H](C(=O)NCC(=O)NCCOCCOCCOCCOCCOCCOCCOCCOCCOCCOCCOCCOCCC(N)=O)CSCC(=O)N[C@@H](Cc2ccccc2)C(=O)N(C)[C@@H](C)C(=O)N[C@@H](CC(N)=O)C(=O)N2CCC[C@H]2C(=O)N[C@@H](Cc2cnc[nH]2)C(=O)N[C@@H](Cc2cnc[nH]2)C(=O)N[C@@H](CO)C(=O)N[C@@H](Cc2c[nH]c3ccccc23)C(=O)N[C@@H](CCCNC(=N)N)C(=O)N[C@@H](Cc2c[nH]c3ccccc23)C(=O)N1C [Compound No. 117] ({CH2CO}-F[NMeA]NPHHSWRW[NMeNle][NMeNle]LCG[PEG12]-NH2; thioether N-14)
–,IC50 (read-out: HTRF IC50 value): 2.71 nM,CCCC[C@H]1C(=O)N(C)[C@@H](CCCC)C(=O)N[C@@H](CCCN)C(=O)N[C@H](C(=O)NCC(N)=O)CSCC(=O)N[C@@H](Cc2ccc(O)cc2)C(=O)N2CCC[C@H]2C(=O)N[C@@H](CC(N)=O)C(=O)N2CCC[C@H]2C(=O)N[C@@H](Cc2cnc[nH]2)C(=O)N[C@@H](CC(C)C)C(=O)N2C[C@H](O)C[C@H]2C(=O)N[C@@H](Cc2c[nH]c3ccccc23)C(=O)N[C@@H](CO)C(=O)N[C@@H](Cc2c[nH]c3ccccc23)C(=O)N1C [Example 1173] ({CH2CO}-YPNPHL[Hyp]WSW[NMeNle][NMeNle][Orn]CG-NH2; thioether N-14)
34,–,CCCC[C@H]1C(=O)N(C)[C@@H](CCCC)C(=O)N[C@@H](CCCNC(=N)N)C(=O)N[C@H](C(=O)NCC(N)=O)CSCC(=O)N[C@@H](Cc2ccccc2)C(=O)N(C)[C@@H](C)C(=O)N[C@@H](CC(N)=O)C(=O)N2CCCCC2C(=O)N[C@@H](Cc2cnc[nH]2)C(=O)N[C@@H](CC(C)C)C(=O)N(C)CC(=O)N[C@@H](Cc2c[nH]c3ccccc23)C(=O)N[C@@H](CO)C(=O)N[C@@H](Cc2c[nH]c3ccccc23)C(=O)N1C (some centres unmarked) [Compound No. 44] ({CH2CO}-F[NMeA]N[ξPip]HL[Sar]WSW[NMeNle][NMeNle]RCG-NH2; thioether N-14)
31,–,CCCC[C@H]1C(=O)N(C)[C@@H](CCCC)C(=O)N[C@@H](CCCNC(=N)N)C(=O)N[C@H](C(=O)NCC(N)=O)CSCC(=O)N[C@@H](Cc2ccccc2)C(=O)N(C)[C@@H](C)C(=O)N[C@@H](C)C(=O)N2CCCC2C(=O)N[C@@H](Cc2cnc[nH]2)C(=O)N[C@@H](CC(C)C)C(=O)N(C)CC(=O)N[C@@H](Cc2c[nH]c3ccccc23)C(=O)N[C@@H](CO)C(=O)N[C@@H](Cc2c[nH]c3ccccc23)C(=O)N1C (some centres unmarked) [Compound No. 8] ({CH2CO}-F[NMeA]A[ξP]HL[Sar]WSW[NMeNle][NMeNle]RCG-NH2; thioether N-14)
40,–,CCCC[C@H]1C(=O)N(C)[C@@H](CCCC)C(=O)N[C@@H](CCCNC(=N)N)C(=O)N[C@H](C(=O)NCC(N)=O)CSCC(=O)N[C@@H](Cc2ccccc2)C(=O)N(C)[C@@H](C)C(=O)N[C@@H](CC(N)=O)C(=O)N2C[C@H](N)CC2C(=O)N[C@@H](Cc2cnc[nH]2)C(=O)N[C@@H](CC(C)C)C(=O)N(C)CC(=O)N[C@@H](Cc2c[nH]c3ccccc23)C(=O)N[C@@H](CO)C(=O)N[C@@H](Cc2c[nH]c3ccccc23)C(=O)N1C (stereo partly drawn) [Compound No. 48] ({CH2CO}-F[NMeA]N[ξPro(4R-NH2)]HL[Sar]WSW[NMeNle][NMeNle]RCG-NH2; thioether N-14)
108,–,"CCCC[C@H]1C(=O)N[C@@H](CCCNC(=N)N)C(=O)N[C@H](C(=O)NCC(N)=O)CSCC(=O)N[C@@H](Cc2ccccc2)C(=O)N(C)[C@@H](C)C(=O)N[C@@H](CC(N)=O)C(=O)N2CCC[C@H]2C(=O)N[C@@H](Cc2cnc[nH]2)C(=O)N[C@@H](CC(C)C)C(=O)N(C)CC(=O)N[C@@H](Cc2c[nH]c3ccccc23)C(=O)N[C@@H](CO)C(=O)N[C@@H](Cc2c[nH]c3ccccc23)C(=O)N(C)[C@@H](Cc2ccccc2)C(=O)N1C [Compound No. 67] (HELM PEPTIDE1{[O=C(C[*:3])[*:2]].F.[meA].N.P.H.L.[Sar].W.S.W.[meF].[CCCC[C@@H](C(=O)[*:2])N(C)[*:1]].R.C.G.[am]}$PEPTIDE1,PEPTIDE1,1:R3-15:R3$$$V2.0)"
–,"IC50 (Table 7, Compound No. 99 variant macrocyclic peptides, read-out: HTRF Human PD-L1/PD-1 Binding Assay IC50): > 20000 nM","CC[C@H](C)[C@@H]1NC(=O)[C@H](C(C)C)NC(=O)[C@H]([C@@H](C)CC)NC(=O)[C@@H](Cc2ccccc2)NC(=O)[C@H](Cc2ccccc2)NC(=O)CSC[C@@H](C(=O)NCC(N)=O)NC(=O)[C@H](CCCNC(=N)N)NC(=O)[C@H](Cc2ccccc2)NC(=O)[C@H](C(C)C)NC(=O)[C@H](CCCNC(=N)N)NC(=O)[C@H](CC(=O)O)NC(=O)[C@H](CCCNC(=N)N)NC1=O [Compound No. 102] (HELM PEPTIDE1{[O=C(C[*:3])[*:2]].F.[dF].I.V.I.R.D.R.V.F.R.C.G.[am]}$PEPTIDE1,PEPTIDE1,1:R3-13:R3$$$V2.0)"
